This is an account of results in patent US12691186B2, “B7-H3 miniproteins, conjugates, and uses thereof” (priority 2023, dated 2026).

The nature of data set [1]: Thermal stability (Tm) of B7-H3 miniprotein conjugates. Type of data set: physicochemical. How it is done: Thermal stability was assessed for several exemplary miniprotein conjugates and reported as Tm (e.g., see Table 7A).
As compared to unconstrained sequences (e.g., as in Table 2A and shown for C211 in Table 7A), those with disulfide bonds (e.g., as in Table 2C and shown for C234, C275, C294, and C309 in Table 7A) were more thermally stable (see Table 7A), and exemplary compounds with two disulfide bridges (C234, C275, and C309) were stable at higher temperatures than an exemplary compound with one disulfide bridge (C294).

Data set [2] has as its system opossum kidney proximal tubule cells. The data set can be described thus: OK-PTC uptake assay of miniprotein conjugates in presence of scaffold A decoys. Type of data set: cell-based. The settings on record: compound 20 μM; for % Uptake reduction in the presence of a decoy C118: 20-fold molar excess of decoy C118; for % Uptake reduction in the presence of a decoy C119: 20-fold molar excess of decoy C119; for % Uptake reduction in the presence of a decoy C120: 20-fold molar excess of decoy C120. How it is done: This Example describes reduction of uptake of exemplary truncated and constrained B7-H3 miniprotein conjugates (C272, C308, C234, C394, C250, and C228) when combined with exemplary scaffold A decoys (C118, C119 and C120) as compared to no decoy. Uptake of compounds was evaluated in opossum kidney proximal tubule cells (as described in Example 5). Here, cells were treated with a compound in the presence or absence of a 20-fold molar excess of exemplary scaffold A decoys, C118, C119, and C120. Results depicting uptake of six exemplary B7-H3-targeting compounds, C272, C308, C234, C394, C250, and C228, in OK-PTC cells in the presence and absence of exemplary decoys C118, C119, and C120 (scaffold A decoys) are shown in Table 13. The B7-H3-targeting compounds were used at 20 μM and the decoys used at a 20-fold (with C272, C308, C234, C394, and C250) and 10-fold (with C228) molar excess.

Data set [3] deals with >6,500 different human proteins. The data set can be described thus: Off-target binding, cell microarray platform (Retrogenix Assay) in HEK293 cells. Conditions: biotin-labeled molecules. Here is the method: To evaluate potential off-target binding, eight biotin-labeled molecules were tested in a cell microarray platform (Charles River Lab, Retrogenix Assay) having >6,500 different human proteins spanning diverse functions and subcellular locations.
Initially, two pools of molecules were tested. Pool #1 consisted of C298, C300, C302, C304, and pool #2 consisted of C306, C308, C310, and C312 at 2 μg/mL for each molecule. To perform this assay, HEK293 cells were plated on a dish and localized spots of cells were transiently over-expressed with a cDNA encoding for one of the >6,500 targets. Included in this library were two isoforms of CD276 (B7-H3) and B7-H3 related proteins (B7-1, B7-2, B7-H1/PD-L1, and B7-H2). The molecule pools were incubated on the fixed, over-expressing cell microarrays (n=2 per protein), and binding was visualized using Alexa Fluor 647 streptavidin fluorescence. All transfection efficiencies exceeded minimum thresholds for the microarray expression targets. Preliminary interactions identified from pooled results were re-spotted in duplicates, and each of the eight compounds were tested individually (n=2) at 2 μg/mL and/or in dose response against these targets as described above to validate the interactions.
All positive control interactions were strong and passed quality control. Specific interactions observed (median SNR≥1) confirmed on-target B7-H3 binding in two different isoforms for each of the eight test molecules. These interactions with the primary target occurred after fixation and in live cells (absence of fixation). No significant additional interactions were confirmed for any test molecules outside of B7-H3, indicating high specificity for the primary target (data not shown).

Data set [4] is described as follows: In vitro metabolic stability, kidney brush border membrane (KBBM), mouse. Type of data set: in vitro ADME. Conditions: 37° C. An excerpt: (§1) This Example describes in vitro metabolic stability of exemplary B7-H3 miniprotein conjugates.
(§2) Pharmacokinetic assessments are described in Example 18.

A short description of data set [5]: In vitro metabolic stability, plasma, mouse. Type of data set: in vitro ADME. Conditions: 37° C.
Source text: as §1, §2

The subject of data set [6] is opossum kidney proximal tubule cells. The data set is described as follows: Proximal tubule epithelial cell (OK cell) uptake assay relative to control C4. Type of data set: cell-based.
Protocol: Inhibition constant (Ki) of each conjugate was measured using DELFIA as described herein.

Bridges are numbered along the chain shown (N, C = ends). Primed or numbered codes have the meaning given here. Where no end group is shown, it is not given here. [ ]: non-standard residue; d: D form. The star is where a group is joined. DOTA = O=C(O)CN1CCN(CC(=O)O)CCN(CC(=O)*)CCN(CC(=O)O)CC1; Biotin = O=C1N[C@H]2[C@H](CS[C@H]2CCCCC(=O)*)N1; Lys(Me2) = CN(C)CCCC[C@H](N)C(=O)O; PEG4 = NCCOCCOCCOCCOCCC(=O)O; PEG4′ = not defined here Some results are limits rather than exact numbers.

`CC[C@H](C)[C@@H]1NC(=O)[C@H](Cc2ccccc2)NC(=O)[C@H](C)NC(=O)[C@H](CCCCN(C)C)NC(=O)[C@H]([C@@H](C)CC)NC(=O)[C@H](CCC(N)=O)NC(=O)[C@H](C)NC(=O)[C@H](Cc2ccc(O)cc2)NC(=O)[C@H]([C@@H](C)O)NC(=O)[C@H](CC(C)C)NC(=O)[C@@H]2CSSC[C@@H](C(=O)N[C@@H](CO)C(N)=O)NC(=O)[C@H](CC(C)C)NC(=O)[C@H](CCC(=O)O)NC(=O)[C@H](CCCCN)NC(=O)[C@H](C)NC(=O)[C@H](CCC(=O)O)NC(=O)[C@H](CO)NC(=O)[C@H](CC(C)C)NC(=O)[C@H]([C@@H](C)CC)NC(=O)[C@H](CCC(=O)O)NC(=O)[C@H](CO)NC(=O)[C@H](CO)NC(=O)[C@H](CCC(N)=O)NC(=O)[C@H](CSSC[C@H](NC(=O)CCOCCOCCOCCOCCNC(=O)CCCC[C@@H]3SC[C@@H]4NC(=O)N[C@@H]43)C(=O)N[C@@H](C)C(=O)N[C@@H](CCCC[N+](C)(C)C)C(=O)N[C@@H](CCC(=O)O)C(=O)N[C@@H](CCCCN)C(=O)N[C@@H]([C@@H](C)CC)C(=O)N[C@@H](C)C(=O)N[C@@H](C)C(=O)N[C@@H](CC(C)C)C(=O)N[C@@H](CO)C(=O)N[C@@H](CCC(=O)O)C(=O)N[C@@H]([C@@H](C)CC)C(=O)N[C@@H]([C@@H](C)CC)C(=O)N[C@@H](Cc3c[nH]c4ccccc34)C(=O)N[C@@H](CC(C)C)C(=O)N3CCC[C@H]3C(=O)N2)NC(=O)[C@@H]2CCCN2C(=O)[C@H](CC(=O)O)NC(=O)[C@H](CC(=O)O)NC(=O)[C@H](CC(N)=O)NC(=O)[C@H](CC(C)C)NC(=O)[C@H](C)NC(=O)[C@H](C)NC1=O` [Compound C234]: the “Tm (° C.)” value in data set [1] was ~≥75 °C. Moreover, in data set [2], the “% Uptake reduction in the presence of a decoy C118” value came out at 86.4%, the “% Uptake reduction in the presence of a decoy C119” value came out at 96.2% and the “% Uptake reduction in the presence of a decoy C120” value worked out at 96.9%.
Consider `CC[C@H](C)[C@@H]1NC(=O)[C@H](Cc2ccccc2)NC(=O)[C@H](C)NC(=O)[C@H](CCCCNC)NC(=O)[C@H]([C@@H](C)CC)NC(=O)[C@H](CCC(N)=O)NC(=O)[C@H](C)NC(=O)[C@H](Cc2ccc(O)cc2)NC(=O)[C@H]([C@@H](C)O)NC(=O)[C@H](CC(C)C)NC(=O)[C@@H]2CSSC[C@@H](C(=O)N[C@@H](CO)C(N)=O)NC(=O)[C@H](CC(C)C)NC(=O)[C@H](CCC(=O)O)NC(=O)[C@H](CCCCNC)NC(=O)[C@H](C)NC(=O)[C@H](CCC(=O)O)NC(=O)[C@H](CO)NC(=O)[C@H](CC(C)C)NC(=O)[C@H]([C@@H](C)CC)NC(=O)[C@H](CCC(=O)O)NC(=O)[C@H](CO)NC(=O)[C@H](CO)NC(=O)[C@H](CCC(N)=O)NC(=O)[C@H](CSSC[C@H](NC(=O)CCOCCOCCOCCOCCNC(=O)CCCC[C@@H]3SC[C@@H]4NC(=O)N[C@@H]43)C(=O)N[C@@H](C)C(=O)N[C@@H](CCCC[N+](C)(C)C)C(=O)N[C@@H](CCC(=O)O)C(=O)N[C@@H](CCCCN)C(=O)N[C@@H]([C@@H](C)CC)C(=O)N[C@@H](C)C(=O)N[C@@H](C)C(=O)N[C@@H](CC(C)C)C(=O)N[C@@H](CO)C(=O)N[C@@H](CCC(=O)O)C(=O)N[C@@H]([C@@H](C)CC)C(=O)N[C@@H]([C@@H](C)CC)C(=O)N[C@@H](Cc3c[nH]c4ccccc34)C(=O)N[C@@H](CC(C)C)C(=O)N3CCC[C@H]3C(=O)N2)NC(=O)[C@@H]2CCCN2C(=O)[C@H](CC(=O)O)NC(=O)[C@H](CCCCNC)NC(=O)[C@H](CC(N)=O)NC(=O)[C@H](CC(C)C)NC(=O)[C@H](CCCCNC)NC(=O)[C@H](C)NC1=O` [Compound C308], for which the “background binding to untransfected HEK293 cells” value in data set [3] is “low-background binding”. In addition, in data set [2], the “% Uptake reduction in the presence of a decoy C118” value was 107.9%, the “% Uptake reduction in the presence of a decoy C119” value is given as 108.6% and the “% Uptake reduction in the presence of a decoy C120” value is reported as 104.5%.
With “C41 ({DOTA-PEG4′}-AEALYAQEKIAALSEIIWLPNLTHGQIMAFIAALNNDPSQSSELLSEAEQLNDSQAPG-OH; also: In complexed by DOTA) [Compound C41]”, the “In vitro Stability (mouse) - KBBM” value in data set [4] is recorded as more than 12. The “In vitro Stability (mouse) - Plasma” value in data set [5] is listed as more than 12.
For the molecule “C44: B7-H3 miniprotein test article of Table 5 ({DOTA-PEG4′}-YAQEKIAALSEIIWLPNLTHGQIMAFIAALNNDPSQSSELLSEALALNDSQAPG; also: In complexed by DOTA) [Compound C44]”, the “In vitro Stability (mouse) - KBBM” value in data set [4] was more than 12. For the same molecule, the “In vitro Stability (mouse) - Plasma” value in data set [5] was more than 12.
“{Biotin-PEG4}-CAREKIAALSEIIWLPCLTYAQIKAFIAALNDDPCQSSEILSEAKELCS-NH2 (disulfide 1-35, 17-48) [Compound C284]”: the “% Uptake of C4” value in data set [6] turned out to be 56.6%.
The same measure, in the same setting: under “{Biotin-PEG4}-CAREKIAALSEIIWLPCLTYAQILAFIAALNDDPCQSSEILSEAKELCS-NH2 (disulfide 1-35, 17-48) [Compound C286]” stands 26%.
The same measure, in the same setting: under “{Biotin-PEG4}-CAREKIAALSEIIWLPCLTYAQIQAFIAALNDDPCQSSEILSEAKELCS-NH2 (disulfide 1-35, 17-48) [Compound C290]” stands 17%.
Same read-out and setting: under “{Biotin-PEG4}-CAREKIAALSEIIWLPCLTYAQIVAFIAALNDDPCQSSEILSEAKELCS-NH2 (disulfide 1-35, 17-48) [Compound C291]” stands 30%.
“{Biotin-PEG4}-CAREKIAALSEIIWLPCLTYAQI[Lys(Me2)]AFIAALNDDPCQSSEILSEAKELCS-NH2 (disulfide 1-35, 17-48) [Compound C275]”: the “% Uptake of C4” value in data set [6] came out at 3%. Further, the “Tm (° C.)” value in data set [1] was ~≥75 °C.
